The text below walks through data of article PMC10817512, “OSMAC-Based Discovery and Biosynthetic Gene Clusters Analysis of Secondary Metabolites from Marine-Derived Streptomyces globisporus SCSIO LCY30” (Marine Drugs, 2023).

Values after ≈ are worked out from the molar mass of the structure shown. Where two headings read alike, the source gives them in different places.

For experiment [1], the system named is fourteen human cell lines. Kind of experiment: Cytotoxicity, span over the whole cell panel. It counts as cell-based. Particulars: span of the IC50 values over all fourteen cell lines, read-out: IC50 values, range against fourteen human cell lines. The source says:
(§1) The cell growth inhibitory activities of compounds 1–3 against fourteen different human cell lines (human liver cell line LX-2; hepatocellular cancer line HEPG2; human intestinal epithelial cell line NCM460; colorectal cancer cell lines HCT116 and SW480; normal human breast cell line MCF-10A; breast cancer cell line MCF7; triple-negative breast cancer cell lines MDA-MB-231, MDA-MB-468, and Bt-549; human umbilical vein endothelial cell line; lung cancer cell line A549; cervical cancer cell line Hela; and cholangiocarcinoma cell line RBE) were tested according to the previously published methods. SPSS software version 22.0 was used to test the IC50 values. Cisplatin and adriamycin were used as positive control agents, and all the experiments were carried out in triplicate.

The subject of experiment [2] is breast cancer cell line MCF7. Kind of experiment: Cell growth inhibitory (cytotoxic) activity assay. Format: cell-based, human. Particulars: Homo sapiens. The source says: SPSS software version 22.0 was used to test the IC50 values.
In the next experiment the test system is MRSA. Kind of experiment: Antibacterial MIC, CLSI microdilution. Format: cell-based, Staphylococcus aureus. Particulars: Staphylococcus aureus, 37 °C, 16–18 h, read-out: MIC. The protocol: (§2) An antibacterial activity test of compounds 1–3 was conducted according to a standard protocol provided by the Clinical and Laboratory Standards Institute (CLSI). Sixteen bacterial strains were used, including Staphylococcus aureus ATCC 29213, Staphylococcus aureus 16339, Staphylococcus aureus 1862, Staphylococcus aureus 3090, Staphylococcus aureus 991, Staphylococcus aureus 669, Staphylococcus aureus 745324, Staphylococcus aureus 16162, Staphylococcus aureus (cfr) GDE4P037P, Enterococcus faecalis ATCC 29212, Enterococcus faecalis 36950, Micrococcus luteus ML01, MRSA, Bacillus subtilis BS01, Enterococcus gallinarum 5F52C, and Enterococcus faecium 36711. Compounds 1–3 were dissolved in DMSO at a concentration of 3.2 mg/mL, and vancomycin and ampicilin were used as antibacterial control agents. […] All the assays were carried out in triplicate.
On the technique in general: Dilution methods test growth across graded concentrations, often in twofold steps.

Experiment [3] concerns human liver cell line LX-2. Put plainly: Cell growth inhibitory (cytotoxic) activity assay. Particulars: LX-2 (human liver cell line). Format: cell-based.
Text: as §1

Experiment [4] has as its system normal human breast cell line MCF-10A. Put plainly: Cell growth inhibitory (cytotoxic) activity assay. Particulars: MCF-10A (normal human breast cell line). It counts as cell-based.
Text: as §1

The subject of experiment [5] is human umbilical vein endothelial cell line HUVEC. Kind of experiment: Cell growth inhibitory (cytotoxic) activity assay. Format: cell-based.
Text: as §1

Experiment [6] concerns human intestinal epithelial cell line NCM460. Kind of experiment: Cell growth inhibitory (cytotoxic) activity assay. Format: cell-based. Particulars: Homo sapiens; NCM460 (normal intestinal epithelial cell line).
Text: as §1

The test system of experiment [7] is TNBC cell lines MDA-MB-231, MDA-MB-468, and Bt-549. Put plainly: Cytotoxicity, span over TNBC cell lines. It counts as cell-based. Particulars: Homo sapiens; span over MDA-MB-231, MDA-MB-468 and Bt-549; read-out: IC50 values, range against TNBC cell lines.
Text: as §1

Experiment [8] concerns Staphylococcus simulans AKA1. Kind of experiment: Antibacterial MIC, CLSI microdilution. Format: cell-based. Particulars: Staphylococcus simulans AKA1; 37 °C, 16–18 h; read-out: MIC.
Experiment [9] deals with cervical cancer cell line Hela. Put plainly: Cell growth inhibitory (cytotoxic) activity assay. It counts as cell-based, human. Particulars: Homo sapiens.
Text: as §1

Experiment [10] relates to cholangiocarcinoma cell line RBE. Kind of experiment: Cell growth inhibitory (cytotoxic) activity assay. Particulars: Homo sapiens. Format: cell-based, human.
Text: as §1

In experiment [11] the test system is lung cancer cell line A549. Kind of experiment: Cell growth inhibitory (cytotoxic) activity assay. Format: cell-based, human. Particulars: Homo sapiens.
Text: as §1

In experiment [12] the test system is colorectal cancer cell line SW480. Put plainly: Cell growth inhibitory (cytotoxic) activity assay. It counts as cell-based, human. Particulars: for IC50: Homo sapiens, SW480 (colorectal cancer).
Text: as §1

Experiment [13] has as its system colorectal cancer cell line HCT116. Kind of experiment: Cell growth inhibitory (cytotoxic) activity assay. Format: cell-based, human. Particulars: Homo sapiens, HCT-116.
Text: as §1

The test system of experiment [14] is triple-negative breast cancer cell line MDA-MB-468. Kind of experiment: Cell growth inhibitory (cytotoxic) activity assay. Particulars: Homo sapiens; MDA-MB-468 (TNBC). Format: cell-based, human.
Text: as §1

The test system of experiment [15] is triple-negative breast cancer cell line MDA-MB-231. Kind of experiment: Cell growth inhibitory (cytotoxic) activity assay. Particulars: Homo sapiens; MDA-MB-231 (TNBC). It counts as cell-based, human.
Text: as §1

The test system of experiment [16] is hepatocellular cancer line HEPG2. Put plainly: Cell growth inhibitory (cytotoxic) activity assay. Format: cell-based, human. Particulars: Homo sapiens.
Text: as §1

Experiment [17] concerns triple-negative breast cancer cell line Bt-549. Put plainly: Cell growth inhibitory (cytotoxic) activity assay. It counts as cell-based, human. Particulars: Homo sapiens; Bt-549 (TNBC).
Text: as §1

Experiment [18] has as its system Staphylococcus aureus ATCC 29213. Put plainly: Antibacterial MIC, CLSI microdilution. Format: cell-based. Particulars: ATCC29213; Staphylococcus aureus ATCC 29213; 37 °C, 16–18 h; read-out: MIC. As to the method: as §2
Another experiment relates to Bacillus subtilis BS01. Put plainly: Antibacterial MIC, CLSI microdilution. It counts as cell-based. Particulars: Bacillus subtilis BS01; 37 °C, 16–18 h; read-out: MIC. As to the method:
as §2

The test system of experiment [19] is Staphylococcus aureus (cfr) GDE4P037P. Kind of experiment: Antibacterial MIC, CLSI microdilution. It counts as cell-based. Particulars: Staphylococcus aureus (cfr) GDE4P037P; 37 °C, 16–18 h; read-out: MIC. As to the method:
as §2

Experiment [20] relates to Enterococcus faecalis 36950. Kind of experiment: Antibacterial MIC, CLSI microdilution. Format: cell-based. Particulars: Enterococcus faecalis 36950; 37 °C, 16–18 h; read-out: MIC. As to the method:
as §2

Experiment [21] concerns Staphylococcus aureus 1862. Kind of experiment: Antibacterial MIC, CLSI microdilution. It counts as cell-based. Particulars: Staphylococcus aureus 1862; 37 °C, 16–18 h; read-out: MIC. As to the method:
as §2

Experiment [22] has as its system Staphylococcus aureus 669. Put plainly: Antibacterial MIC, CLSI microdilution. Format: cell-based. Particulars: Staphylococcus aureus 669; 37 °C, 16–18 h; read-out: MIC. The protocol: as §2
In experiment [23] the test system is Staphylococcus aureus 745324. Kind of experiment: Antibacterial MIC, CLSI microdilution. It counts as cell-based. Particulars: Staphylococcus aureus 745324; 37 °C, 16–18 h; read-out: MIC. The protocol:
as §2

Experiment [24] has as its system Enterococcus gallinarum 5F52C. Put plainly: Antibacterial MIC, CLSI microdilution. It counts as cell-based. Particulars: Enterococcus gallinarum 5F52C; 37 °C, 16–18 h; read-out: MIC. The protocol:
as §2

Experiment [25] relates to Enterococcus faecalis ATCC 29212. Kind of experiment: Antibacterial MIC, CLSI microdilution. It counts as cell-based. Particulars: ATCC29212; Enterococcus faecalis ATCC 29212; 37 °C, 16–18 h; read-out: MIC. As to the method:
as §2

Experiment [26] has as its system Staphylococcus aureus 3090. Kind of experiment: Antibacterial MIC, CLSI microdilution. It counts as cell-based. Particulars: Staphylococcus aureus 3090; 37 °C, 16–18 h; read-out: MIC. The protocol: as §2
Experiment [27] concerns Staphylococcus aureus 991. Put plainly: Antibacterial MIC, CLSI microdilution. It counts as cell-based. Particulars: Staphylococcus aureus 991; 37 °C, 16–18 h; read-out: MIC. As to the method: as §2
Experiment [28] concerns Staphylococcus aureus 16339. Kind of experiment: Antibacterial MIC, CLSI microdilution. It counts as cell-based. Particulars: Staphylococcus aureus 16339; 37 °C, 16–18 h; read-out: MIC. As to the method: as §2
A further experiment concerns Micrococcus luteus ML01. Kind of experiment: Antibacterial MIC, CLSI microdilution. It counts as cell-based. Particulars: 37 °C, 16–18 h. The protocol: as §2
Experiment [29] has as its system Staphylococcus aureus 16162. Put plainly: Antibacterial MIC, CLSI microdilution. Format: cell-based. Particulars: Staphylococcus aureus 16162; 37 °C, 16–18 h; read-out: MIC. As to the method: as §2
Experiment [30] has as its system Enterococcus faecium 36711. Put plainly: Antibacterial MIC, CLSI microdilution. Format: cell-based. Particulars: Enterococcus faecium 36711; 37 °C, 16–18 h; read-out: MIC. The protocol:
as §2

Experiment [31] deals with methicillin-resistant Staphylococcus aureus. Further details: method as in PMID 27097765. Particulars: ref [24]; cited from earlier work.
In another experiment the test system is Bacillus subtilis. Further details: method as in PMID 18396903. Particulars: ref [35]; cited from earlier work.
A further experiment deals with Staphylococcus lentus. The arrangement: method as in PMID 18396903. Particulars: ref [35]; cited from earlier work.
Where [32] appears, read: Micrococcus luteus, ML01, Micrococcus luteus ML01, read-out: MIC.

The term IC50 denotes the concentration needed to halve the response being measured. What is called MIC is the least concentration at which growth counts as inhibited. As to `Cc1cc(O)c2c3c(c(O)c(C4CC(N)C(O)C(C)O4)c2c1)C(=O)c1c(O)cccc1C3=O` (stereo not drawn) [Mayamycin B (2), mayamycin B], the IC50 in experiment [1] is 2.05 to 7.16 µM; in experiment [2], 4.15 µM; in [3], 5.33 µM; in [4] it was 5.21 µM; in experiment [5], 4.41 µM; in [6], 7.16 µM. Moreover, the IC50 is 3.01 to 6.08 µM in [7]; 2.8 µM in experiment [9]; 4.06 µM in [10]; 5.08 µM in experiment [11]; 2.87 µM in experiment [12]; 2.05 µM in experiment [13]. Further, the IC50 in [14] is 6.08 µM; in [15] it was 3.01 µM; in experiment [16], 6 µM; in [17], 3.87 µM. For the same compound, the minimal inhibitory concentration (MIC) in the experiment with MRSA was found to be 8 µg/mL (≈ 17.8 µM); in [8] it was 64 µg/mL (≈ 142 µM); in experiment [18], 16 µg/mL (≈ 35.6 µM); with Bacillus subtilis BS01 it was 8 µg/mL (≈ 17.8 µM); in [19], 8 µg/mL (≈ 17.8 µM); in experiment [20], 8 µg/mL (≈ 17.8 µM). Besides, the MIC in experiment [21] was 16 µg/mL (≈ 35.6 µM); in [22], 16 µg/mL (≈ 35.6 µM); in experiment [23], 8 µg/mL (≈ 17.8 µM); in experiment [24], 32 µg/mL (≈ 71.2 µM); in [25], 16 µg/mL (≈ 35.6 µM); in experiment [26], 8 µg/mL (≈ 17.8 µM). Also, the minimal inhibitory concentration (MIC) in experiment [27] is 16 µg/mL (≈ 35.6 µM); in experiment [28] it was 16 µg/mL (≈ 35.6 µM); in the experiment on Micrococcus luteus ML01 (Micrococcus luteus ML01), 1 µg/mL (≈ 2.22 µM); in the experiment on Micrococcus luteus ML01 (setting [32]), 1 to 2 µg/mL (≈ 2.22 to 4.45 µM); in experiment [29], 16 µg/mL (≈ 35.6 µM); in [30] it was 32 µg/mL (≈ 71.2 µM).
Take `C[C@]1(O)CC(=O)c2c(cc(O)c3c2C(=O)c2cccc(O)c2C3=O)C1` [Rabelomycin (3), rabelomycin]: the IC50 is 1.57 to 16.1 µM in experiment [1]; 4.48 µM in experiment [2]; 13.4 µM in experiment [3]; 11.3 µM in [4]; 10.9 µM in experiment [5]; 7.05 µM in experiment [6]. The IC50 in experiment [7] was 2.18 to 8.67 µM; in experiment [9] it was 16.1 µM; in experiment [10] it was 4.23 µM; in experiment [11] it was 5.97 µM; in experiment [12] it was 1.57 µM; in experiment [13], 4.72 µM. The half-maximal inhibitory concentration (IC50) in experiment [14] was 2.18 µM; in [15] it was 8.67 µM; in [16], 8.64 µM; in [17], 7.85 µM. Besides, the MIC in the experiment with MRSA is 8 µg/mL (≈ 23.6 µM); in experiment [8] it was 16 µg/mL (≈ 47.3 µM); in experiment [18] it was 8 µg/mL (≈ 23.6 µM); in the experiment with Bacillus subtilis BS01 it was 4 µg/mL (≈ 11.8 µM); in experiment [19], 4 µg/mL (≈ 11.8 µM); in [20] it was 8 µg/mL (≈ 23.6 µM). The MIC was determined as 8 µg/mL (≈ 23.6 µM) in experiment [21]; 16 µg/mL (≈ 47.3 µM) in [22]; 8 µg/mL (≈ 23.6 µM) in experiment [23]; 32 µg/mL (≈ 94.6 µM) in [24]; 8 µg/mL (≈ 23.6 µM) in [25]; 8 µg/mL (≈ 23.6 µM) in experiment [26]. In addition, the MIC in experiment [27] is 16 µg/mL (≈ 47.3 µM); in [28], 8 µg/mL (≈ 23.6 µM); against Micrococcus luteus ML01 (Micrococcus luteus ML01) it was 2 µg/mL (≈ 5.91 µM); in the experiment with Micrococcus luteus ML01 (setting [32]), 1 to 2 µg/mL (≈ 2.96 to 5.91 µM); in experiment [29], 8 µg/mL (≈ 23.6 µM); in [30] it was 32 µg/mL (≈ 94.6 µM). The “selective index (SI)” value in experiment [12] (SW480 versus normal intestinal epithelial cell line NCM460) was found to be 4.49.
(-)-Streptophenazine B: the minimum inhibitory concentration (MIC) in [31] was 4.2 µg/mL.
For streptophenazine C, the MIC was 15.6 µg/mL with Bacillus subtilis and 46.9 µg/mL in the experiment on Staphylococcus lentus.
